Results on 18 molecules are retold here after EP2364976B1, “S1P receptor modulating compounds and use thereof” (EPIX Pharmaceuticals, Inc., priority 2007, dated 2007).

The target in the assay is T1, hS1P1 (Homo sapiens, UniProt P21453).
T1 construct: expressed in transfected cells
The assay can be described thus: hS1P1 EC50 (S1P receptor Ca2+ flux protocol, FLIPR, CHO K1 Gqi5 cells). The assay is classed as cell-based. Conditions: several values per compound = repeat determinations as printed. In a few lines: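 Calcium flux (FLIPR) in CHO K1 cells stably expressing Gqi5 and N-terminally V5-tagged human S1P1, loaded with calcium dye 90 min at RT. Peak fluorescence recorded 90 s after compound addition (10-point 3x dilution, 0.25% DMSO), normalized to 200 nM S1P (100%) and buffer (0%); EC50 from 4-parameter fit.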
On the technique in general: Calcium flux is commonly read through the fluorescence of an indicator in the cells.

SMILES strings stand for the structures.

T1 sequence (P21453 whole entry): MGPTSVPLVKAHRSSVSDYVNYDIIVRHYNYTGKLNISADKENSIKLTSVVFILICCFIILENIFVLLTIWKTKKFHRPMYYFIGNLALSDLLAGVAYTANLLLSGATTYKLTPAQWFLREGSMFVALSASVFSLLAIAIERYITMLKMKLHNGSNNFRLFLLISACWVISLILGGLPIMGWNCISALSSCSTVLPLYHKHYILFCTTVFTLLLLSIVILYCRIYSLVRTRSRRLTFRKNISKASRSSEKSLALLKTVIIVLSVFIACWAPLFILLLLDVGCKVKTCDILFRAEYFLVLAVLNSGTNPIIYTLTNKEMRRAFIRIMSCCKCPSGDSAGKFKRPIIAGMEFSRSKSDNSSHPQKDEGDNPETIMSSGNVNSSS

As usually defined, the EC50 is the concentration giving half of the maximal effect. The low end stands for higher potency in that assay, the high end for lower potency in that assay. In the case of `O=C(O)C1CN(Cc2ccc(-c3cc4cc(Cc5nccs5)ccc4o3)c(F)c2)C1` [Reference Compound 94, 1-((3-Fluoro-4-(5-(thiazol-2-ylmethyl)benzofuran-2-yl)phenyl)methyl)azetidine-3-carboxylic acid], the EC50 was 76 nM.
The molecule `O=C(O)C1CN(Cc2cccc(-c3cc4cc(Cc5ccccc5)ccc4o3)c2)C1` [Reference Compound 96, 1-(3-(5-Benzylbenzofuran-2-yl)benzyl)azetidine-3-carboxylic acid] gave an EC50 of 4830 nM.
In turn, `CC(C)(c1ccccc1)c1ccc2oc(-c3ccc(CN4CC(C(=O)O)C4)cc3F)cc2c1` [Reference Compound 97, 1-((3-Fluoro-4-(5-(2-phenylpropan-2-yl)benzofuran-2-yl)phenyl)methyl)azetidine-3-carboxylic acid] displayed an EC50 of 365 nM. This EC50 lies about 13-fold lower than the previous one.
`O=C(O)C1CN(Cc2ccc(-c3cc4cc(Cc5ccccc5)ccc4[nH]3)c(F)c2)C1` [Reference Compound 99, 1-((3-Fluoro-4-(5-(phenylmethyl)-1H-indol-2-yl)phenyl)methyl)-3-azetidinecarboxylic acid] had an EC50 of 1340 nM.
`O=C(O)C1CN(Cc2ccc(-c3cc4cc(Cc5ncccn5)ccc4o3)c(F)c2)C1` [Reference Compound 100] registered an EC50 of 87 nM.
For `O=C(c1ccccc1)c1ccc2oc(-c3ccc(CN4CC(C(=O)O)C4)cc3F)cc2c1` [Reference Compound 102, 1-((4-(5-Benzoylbenzofuran-2-yl)-3-fluorophenyl)methyl)azetidine-3-carboxylic acid], it took 80 nM to reach a half-maximal effect (EC50). This EC50 and that of the molecule before are within 1.5-fold of each other.
Molecule `O=C(O)C1CN(Cc2ccc(-c3cc4cc(Cc5ccccc5)nc(Cl)c4o3)c(F)c2)C1` [Reference Compound 107, 1-((4-(5-Benzyl-7-chlorofuro[2,3-c]pyridin-2-yl)-3-fluorophenyl)methyl)azetidine-3-carboxylic acid] came in with an EC50 of 2580 nM.
In turn, `O=C(O)C1CN(Cc2ccc(-c3cc4cc(Cc5ccccc5)ncc4o3)c(F)c2)C1` [Reference Compound 108, 1-((4-(5-Benzylfuro[2,3-c]pyridin-2-yl)-3-fluorophenyl)methyl)azetidine-3-carboxylic acid] showed a concentration for a half-maximal effect (EC50) of 409 nM.
The figure for `O=C(O)C1CN(Cc2ccc(-c3cc4nc(Cc5ccccc5)ccc4o3)c(F)c2)C1` [Reference Compound 109, 1-((4-(5-Benzylfuro[3,2-b]pyridin-2-yl)-3-fluorophenyl)methyl)azetidine-3-carboxylic acid] is 409 nM; for `O=C(O)C1CN(Cc2ccc(-c3nc4ccc(Cc5ccccc5)cc4o3)c(F)c2)C1` [Reference Compound 111, 1-((4-(6-Benzylbenzo[d]oxazol-2-yl)-3-fluorophenyl)methyl)azetidine-3-carboxylic acid] it is 8 nM; for `O=C(O)C1CN(Cc2ccc(-c3nc4cc(Cc5ccccc5)ccc4o3)c(F)c2)C1` [Reference Compound 112, 1-((4-(5-Benzylbenzo[d]oxazol-2-yl)-3-fluorophenyl)methyl)azetidine-3-carboxylic acid] it is 19 nM.
The value for `O=C(O)C1CN(Cc2ccc(-c3nc4cc(Cc5ccccc5)ccc4o3)cc2)C1` [Reference Compound 113, 1-((4-(5-Benzylbenzo[d]oxazol-2-yl)phenyl)methyl)azetidine-3-carboxylic acid] was 364 nM; that for `O=C(O)C1CN(Cc2ccc(-c3nc4ccc(Cc5ccccc5)cc4[nH]3)c(F)c2)C1` [Reference Compound 115, 1-((4-(5-Benzyl-1H-benzo[d]imidazol-2-yl)-3-fluorophenyl)methyl)azetidine-3-carboxylic acid] was 4950 nM.
In turn, `O=C(O)C1CN(Cc2ccc(-c3nc4cc(Oc5ccccc5)ccc4o3)c(F)c2)C1` [Reference Compound 116, 1-((3-Fluoro-4-(5-phenoxybenzo[d]oxazol-2-yl)phenyl)methyl)azetidine-3-carboxylic acid] yielded an EC50 of 12 nM.
The value for `O=C(O)C1CN(Cc2ccc(-c3nc4ccc(Cc5ccccc5)cc4s3)c(F)c2)C1` [Reference Compound 118, 1-((4-(6-Benzylbenzo[d]thiazol-2-yl)-3-fluorophenyl)methyl)azetidine-3-carboxylic acid] was 149 nM; that for `O=C(O)C1CN(Cc2cnc(-c3cc4cc(Cc5ccccc5)ccc4o3)nc2)C1` [Reference Compound 121, 1-((2-(5-Benzylbenzofuran-2-yl)pyrimidin-5-yl)methyl)azetidine-3-carboxylic acid] was 1320 nM; that for `Cc1nc(-c2cc3cc(Cc4ccccc4)ccc3o2)ccc1CN1CC(C(=O)O)C1` [Reference Compound 122, 1-((6-(5-Benzylbenzofuran-2-yl)-2-methylpyridin-3-yl)methyl)azetidine-3-carboxylic acid] was 420 nM.
The value for `CC(c1ccc(-c2cc3cc(Cc4ccccc4)ccc3o2)c(F)c1)N1CC(C(=O)O)C1` (stereo not drawn) [Reference Compound 123, 1-(1-(4-(5-benzylbenzofuran-2-yl)-3-fluorophenyl)ethyl)azetidine-3-carboxylic acid] was 313 nM.
